Patent US20040034336A1, “Charged liposomes/micelles with encapsulted medical compounds” (priority 2002, published 2004)

Assay: Local delivery of drug in charged liposomes/micelles from a hydrogel-coated metal mesh catheter by iontophoresis
Conditions: iontophoresis 5 mA, 8 V, 10 minutes
Experimental: Liposome or micelles were prepared by mixing 3.0 mg of phosphatidylcholine, 3.0 mg of cholesterol and 0.3 mg of phosphatidylserine in a test tube. Chloroform (200 microliters) was added and the solution was evaporated to dryness in a test tube. 7-Amino Actinomycin D (500 mg) was dissolved in 8 mM CaCl2 for a final concentration of 0.5 mg/ml. The 7-Amino Actinomycin D solution was added to the lipid mixture in small aliquots with constant stirring. The hydrogel-coated metal mesh catheter was placed in the 7-amino Actinomycin D/liposome or micelle mixture and then used for drug delivery in the following manner: The hydrogel-coated metal mesh catheter was placed in the 7-Amino Actinomycin D/liposome or micelle mixture and then removed. In some cases, the hydrogel-coated mesh portion of the catheter was covered with a retractable sheath to prevent loss of the compound during the transport of the catheter from the arterial access site to the target site. When the catheter was positioned at the target site the sheath was retracted and the mesh was expanded against the arterial wall. Iontophoersis was performed by applying an electrical current to the mesh. […] In this example the iontophoresis parameters were 5 mA, and 8 V, applied for 10 minutes.

Cc1c2oc3c(C)c(N)cc(C(=O)N[C@@H]4C(=O)N[C@H](C(C)C)C(=O)N5CCC[C@H]5C(=O)N(C)CC(=O)N(C)[C@@H](C(C)C)C(=O)O[C@@H]4C)c3nc-2c(C(=O)N[C@@H]2C(=O)N[C@H](C(C)C)C(=O)N3CCC[C@H]3C(=O)N(C)CC(=O)N(C)[C@@H](C(C)C)C(=O)O[C@@H]2C)c(N)c1=O [7-Amino Actinomycin D]
distribution of the fluorescent compound in the vessel after local delivery (7-Amino Actinomycin D/liposome or micelle mixture (phosphatidylcholine, cholesterol, phosphatidylserine)): throughout the vessel wall and in the outer layer of the vessel
localization in the cells of the vessel after local delivery (7-Amino Actinomycin D/liposome or micelle mixture): evidence of localization of the 7-Amino Actinomycin D in the nuclei of the cells
